Assay results: ChEMBL document CHEMBL1201862, “PubChem BioAssay data set” (2004)
Values joined by “and” are separate entries in the source; they are usually repeats but may differ in a detail not shown here. Identical values can stand only once.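 Values below derive from 48-hour exposures of cells grown in 96-well plates, with endpoints linearly interpolated between the two concentrations bracketing the appropriate inhibition level. At the GI50, growth is halved.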 Active and inactive are the calls of the source. No stated cut-off is given here; in the data, active = GI50 up to about 1.1 µM and inactive = higher.

Experiments:
Test in all cases: DTP human tumour cell line panel, 48 h
SF-268 = system: SF-268
SN12C = system: SN12C
RXF 393 = system: RXF 393
EKVX = system: EKVX
IGROV-1 = system: IGROV-1
NCI-H23 = system: NCI-H23
MDA-MB-435 = system: MDA-MB-435
HL-60 = system: HL-60
T47D = system: T47D
NCI-H460 = system: NCI-H460
BT-549 = system: BT-549
CAKI-1 = system: CAKI-1
DU-145 = system: DU-145
MOLT-4 = system: MOLT-4
HCT-15 = system: HCT-15
M14 = system: M14
A549 = system: A549
MDA-MB-231 = system: MDA-MB-231
TK-10 = system: TK-10
A498 = system: A498

| SMILES | GI50 (SF-268) | GI50 (SN12C) | GI50 (RXF 393) | GI50 (EKVX) | GI50 (IGROV-1) | GI50 (NCI-H23) | GI50 (MDA-MB-435) | GI50 (HL-60) | GI50 (T47D) | GI50 (NCI-H460) | GI50 (BT-549) | GI50 (CAKI-1) | GI50 (DU-145) | GI50 (MOLT-4) | GI50 (HCT-15) | GI50 (M14) | GI50 (A549) | GI50 (MDA-MB-231) | GI50 (TK-10) | GI50 (A498) |
| --- | --- | --- | --- | --- | --- | --- | --- | --- | --- | --- | --- | --- | --- | --- | --- | --- | --- | --- | --- | --- |
| COC(=O)C1OC(O[C@H]2CC[C@]3(C)[C@H]4CC=C5[C@@H]6CC(C)(C)CC[C@]6(C(=O)OC6OCC(O)C(O)C6OC6OC(C)C(OC7OCC(O)C(O)C7O)C(O)C6O)CC[C@@]5(C)[C@]4(C)CC[C@H]3C2(C)C)C(O)C(O)C1O (some centres undefined) | 17.3 µM (inactive) and 19.6 µM (inactive) | 13.4 µM (inactive) and 16.4 µM (inactive) | 21.1 µM (inactive) and 19.5 µM (inactive) | 17.1 µM (inactive) | 24.8 µM (inactive) and 45.8 µM (inactive) | 15.4 µM (inactive) and 15.8 µM (inactive) | 19.1 µM (inactive) and 17.9 µM (inactive) | 21.2 µM (inactive) and 19.1 µM (inactive) | 28.2 µM (inactive) and 18.2 µM (inactive) | 34.5 µM (inactive) and 20 µM (inactive) | 18.7 µM (inactive) and 19.9 µM (inactive) | 12.9 µM (inactive) and 15.5 µM (inactive) | 18 µM (inactive) and 22.1 µM (inactive) | 19.3 µM (inactive) and 18.1 µM (inactive) | 26.9 µM and 28.8 µM | 15.3 µM (inactive) and 18.2 µM (inactive) | 16.9 µM (inactive) and 19.5 µM (inactive) | – | – | – |
| CCN1CCC(C)OP1(=O)Cc1ccccc1 (centres undefined) | > 100 µM (inactive) | – | – | > 100 µM (inactive) | > 100 µM (inactive) | > 100 µM (inactive) | > 100 µM (inactive) | – | > 100 µM (inactive) | > 100 µM (inactive) | > 100 µM (inactive) | > 100 µM (inactive) | > 100 µM (inactive) | – | > 100 µM | > 100 µM (inactive) | > 100 µM (inactive) | > 100 µM (inactive) | > 100 µM (inactive) | – |
| O=c1c(=O)c2c(Br)sc(Br)c2c1=O | 33 µM (inactive) | 17.3 µM (inactive) | 18.7 µM (inactive) | 20.1 µM (inactive) | 18.2 µM (inactive) | 20.3 µM (inactive) | 19.1 µM (inactive) | – | 20 µM (inactive) | > 100 µM (inactive) | 19.4 µM (inactive) | 19.1 µM (inactive) | > 100 µM (inactive) | 24.3 µM (inactive) | 19.4 µM | 19.8 µM (inactive) | > 100 µM (inactive) | – | 22.1 µM (inactive) | > 100 µM (inactive) |
| COc1ccc(/C=C2\CCC(C)(CN(C)C)C2=O)cc1Br (centres undefined) | 16.5 µM (inactive) | 17.5 µM (inactive) | 17.9 µM (inactive) | 10.2 µM (inactive) | 16.2 µM (inactive) | 28.8 µM (inactive) | 24.5 µM (inactive) | 34.8 µM (inactive) | – | 26.7 µM (inactive) | 16 µM (inactive) | 32.7 µM (inactive) | 50.4 µM (inactive) | 20.3 µM (inactive) | 16.9 µM | 19.8 µM (inactive) | 38.4 µM (inactive) | 36.1 µM (inactive) | 22 µM (inactive) | 22.4 µM (inactive) |
| NC(Cc1ccc(O)cn1)C(=O)NC(C(=O)O)c1ccccc1 (centres undefined) | > 100 µM (inactive) | > 100 µM (inactive) | > 100 µM (inactive) | > 100 µM (inactive) | > 100 µM (inactive) | > 100 µM (inactive) | > 100 µM (inactive) | > 100 µM (inactive) | – | > 100 µM (inactive) | > 100 µM (inactive) | > 100 µM (inactive) | > 100 µM (inactive) | > 100 µM (inactive) | > 100 µM | – | > 100 µM (inactive) | > 100 µM (inactive) | > 100 µM (inactive) | > 100 µM (inactive) |
| COC(=O)[C@H](Cc1c[nH]c2ccccc12)NP(=O)(O)OCC1C=CC(n2cc(C)c(=O)[nH]c2=O)O1 (some centres undefined) | > 100 µM (inactive) | > 100 µM (inactive) | – | > 100 µM (inactive) | > 100 µM (inactive) | > 100 µM (inactive) | > 100 µM (inactive) | > 100 µM (inactive) | > 100 µM (inactive) | – | > 100 µM (inactive) | > 100 µM (inactive) | > 100 µM (inactive) | > 100 µM (inactive) | > 100 µM | – | – | > 100 µM (inactive) | – | > 100 µM (inactive) |
| NS(=O)(=O)c1nnc(/N=C(/CCC(=O)O)C(=O)O)s1 | – | > 100 µM (inactive) | – | > 100 µM (inactive) | > 100 µM (inactive) | > 100 µM (inactive) | > 100 µM (inactive) | > 100 µM (inactive) | > 100 µM (inactive) | > 100 µM (inactive) | > 100 µM (inactive) | > 100 µM (inactive) | > 100 µM (inactive) | > 100 µM (inactive) | > 100 µM | > 100 µM (inactive) | > 100 µM (inactive) | > 100 µM (inactive) | > 100 µM (inactive) | > 100 µM (inactive) |
| O=C(COc1ccc(Cl)cc1Cl)N/N=C/C=C/c1ccc([N+](=O)[O-])o1 | 29.4 µM (inactive) | 8.47 µM (inactive) | 6.07 µM (inactive) | 17.5 µM (inactive) | 1.42 µM (inactive) | 3.18 µM (inactive) | 2.63 µM (inactive) | 3.76 µM (inactive) | > 100 µM (inactive) | 8.39 µM (inactive) | 12.1 µM (inactive) | > 100 µM (inactive) | – | 2.28 µM (inactive) | 3.37 µM | 2.72 µM (inactive) | 8.24 µM (inactive) | 6.95 µM (inactive) | 7.67 µM (inactive) | 11.5 µM (inactive) |
| COc1ccc2oc(=N)c(C(N)=S)cc2c1 | 15.5 µM (inactive) | 27.2 µM (inactive) | 17 µM (inactive) | 29.6 µM (inactive) | 29.6 µM (inactive) | – | 25.1 µM (inactive) | 14.3 µM (inactive) | 23.7 µM (inactive) | 16.9 µM (inactive) | 18.5 µM (inactive) | 37.8 µM (inactive) | 27.2 µM (inactive) | 20 µM (inactive) | 17.5 µM | 32.4 µM (inactive) | 32.1 µM (inactive) | 18 µM (inactive) | 26.1 µM (inactive) | – |
| O=C(CC(=O)Nc1ccccc1)N/N=C/c1cc(/N=N/c2ccc(Br)cc2)ccc1O | 4.5 µM (inactive) | 8.22 µM (inactive) | – | 3.97 µM (inactive) | 4.21 µM (inactive) | 2.6 µM (inactive) | – | 2.44 µM (inactive) | 4.38 µM (inactive) | 3.28 µM (inactive) | > 10 µM (inactive) | 3.61 µM (inactive) | 5.16 µM (inactive) | 1.35 µM (inactive) | 3.33 µM | 6.37 µM (inactive) | > 10 µM (inactive) | 3.26 µM (inactive) | 4.2 µM (inactive) | – |
| O=C(O)c1ccccc1/C=N/N=C1NCCCCN1 | > 100 µM (inactive) | – | > 100 µM (inactive) | > 100 µM (inactive) | > 100 µM (inactive) | > 100 µM (inactive) | > 100 µM (inactive) | > 100 µM (inactive) | > 100 µM (inactive) | > 100 µM (inactive) | > 100 µM (inactive) | – | – | > 100 µM (inactive) | > 100 µM | > 100 µM (inactive) | > 100 µM (inactive) | > 100 µM (inactive) | > 100 µM (inactive) | > 100 µM (inactive) |
| CCOC(=O)c1ccc(Nc2c3c(nc4ccccc24)CCCC3)cc1 | 76.2 µM (inactive) | > 100 µM (inactive) | 33.9 µM (inactive) | > 54.2 µM (inactive) | 4.91 µM (inactive) | > 47.9 µM (inactive) | 1.77 µM (inactive) | 3.22 µM (inactive) | 8.51 µM (inactive) | 43.2 µM (inactive) | – | 54.5 µM (inactive) | > 57.9 µM (inactive) | 3.22 µM (inactive) | 7.13 µM | > 34.2 µM (inactive) | > 38.6 µM (inactive) | 26.6 µM (inactive) | > 74.1 µM (inactive) | 15.3 µM (inactive) |
| CN(C)c1ccc(/C=C2\N=C(c3ccccc3)N(c3ccc4c(c3)Sc3cc(N5C(=O)/C(=C/c6ccc(N(C)C)cc6)N=C5c5ccccc5)ccc3N4)C2=O)cc1 | 19.2 µM (inactive) | 19.1 µM (inactive) | – | 25.8 µM (inactive) | 18.1 µM (inactive) | – | 21.5 µM (inactive) | 27.5 µM (inactive) | 19.6 µM (inactive) | 23.9 µM (inactive) | 22.9 µM (inactive) | 17.9 µM (inactive) | 22.1 µM (inactive) | 61.5 µM (inactive) | 49.2 µM | 21.2 µM (inactive) | 22.1 µM (inactive) | 18.2 µM (inactive) | 17.2 µM (inactive) | 16.8 µM (inactive) |
| O=C(O)c1cc(O)c2c(c1)Cc1cccc(O)c1C2=O | 25.4 µM (inactive) | 16.6 µM (inactive) | – | 22.1 µM (inactive) | > 10 µM (inactive) | 28.1 µM (inactive) | 33.6 µM (inactive) | 21.1 µM (inactive) | 38.6 µM (inactive) | 23.3 µM (inactive) | 30.5 µM (inactive) | – | 36.5 µM (inactive) | 22.7 µM (inactive) | 17.2 µM | 23.4 µM (inactive) | 31.4 µM (inactive) | 21.5 µM (inactive) | 34.4 µM (inactive) | 26.9 µM (inactive) |
| Cc1cc(Nc2ccc(S(=O)(=O)O)cc2)c2ccccc2n1 | > 100 µM (inactive) | > 100 µM (inactive) | – | > 100 µM (inactive) | > 100 µM (inactive) | > 100 µM (inactive) | > 100 µM (inactive) | > 100 µM (inactive) | > 100 µM (inactive) | – | > 100 µM (inactive) | > 100 µM (inactive) | > 100 µM (inactive) | > 100 µM (inactive) | > 100 µM | > 100 µM (inactive) | > 100 µM (inactive) | > 100 µM (inactive) | > 100 µM (inactive) | > 100 µM (inactive) |
